In paper PMC7279002, “Novel 3′-Substituted-1′,2′,4′-Oxadiazole Derivatives of 18βH-Glycyrrhetinic Acid and Their O-Acylated Amidoximes: Synthesis and Evaluation of Antitumor and Anti-Inflammatory Potential In Vitro and In Vivo” (International Journal of Molecular Sciences, 2020):
Read-outs that look alike come from different tables or passages of the source.

Columns and labels:
[1] = test system: carrageenan-induced peritonitis; test: Carrageenan-induced peritonitis; format: in vivo, ICR mice; details: i.p. 1 h before carrageenan, 4 h
Protocol: To study the effect of 3d on carrageenan-induced peritonitis, ICR mice were injected with 1% carrageenan (250 μL) intraperitoneally (i.p.). Compound 3d (50 mg/kg), vehicle (10% Tween-80), dexamethasone (1 mg/kg) as a reference anti-inflammatory drug, and saline buffer were administered i.p. 1 h before peritonitis induction. The healthy uninflamed group (control) was injected i.p. by saline. Mice were sacrificed 4 h after carrageenan injection and their peritoneal cavities were washed with 2 mL of heparinized cold saline buffer to obtain peritoneal cells. The peritoneal exudates were collected and the total leukocyte counts were performed with a Neubauer chamber by optical microscopy after diluting the peritoneal fluid with Turk solution (1:20). To determine the differential leukocyte counts (total 100 cells), peritoneal cells were centrifuged and placed onto slides, stained with azur–eosin by Romanovsky–Giemsa and examined by optical microscopy. The results were expressed as the number of total leukocytes (×10^5 cells/mL) and the percentages of subpopulations of neutrophils, lymphocytes, and monocytes.

[2] = test system: HeLa, KB-3-1, HuTu-80, A549, B16 and hFF3 cells; test: MTT cytotoxicity, summary over the panel of cell lines; format: cell-based
Protocol: (§1) On the first step of the biological evaluation of novel GA derivatives 3a-h, 4a-h, and 5a-h, we analyzed their cytotoxicity in a panel of cultured mammalian cells, including human cervical carcinoma HeLa and KB-3-1, human duodenal carcinoma HuTu-80, human lung adenocarcinoma A549, murine melanoma B16 cell lines, and nontransformed human fibroblasts hFF3. The cells were treated with derivatives for 48 h and cell viability was evaluated by 3-(4, 5-dimethylthiazol-2-yl)-2, 5-diphenyltetrazolium bromide (MTT) assay. Since the studied compounds contain two types of functional groups at position 3-acetoxy- or the hydroxyl-group, 3-acetoxy-GA 1 and GA-Me were used as references. Additionally, hierarchical clustering of cytotoxic data was carried out in order to reveal groups of compounds with similar cytotoxic profiles (Figure 2A).
(§2) Cells were seeded in tetra- or pentaplicates in 96-well plates at a density of 10^4 (tumor cells and […] fibroblasts) or 10^5 (RAW264.7 cells) cells per well. Cells were incubated under standard conditions for 24 h, followed by their treatment with the investigated derivatives (0.5–50 µM) or corresponding concentrations of DMSO (control) for a further 48 h (tumor cells and fibroblasts) or 24 h (RAW264.7 cells). At the end of incubation period, 10 µL of MTT solution was added to the cells (final concentration: 0.5 mg/mL) and plates were incubated for an additional 2 h under standard conditions. Then, the MTT-containing medium was aspirated and formazan crystals formed in living cells were solubilized with 100 µL of DMSO. The absorbance of each well was read at test and reference wavelengths of 570 and 620 nm, respectively, on a Multiscan RC plate reader (Thermo LabSystems, Helsinki, Finland). The IC50 values (the concentration of compounds leading to a decrease of A570 to 50% of A570^control) were calculated by extrapolation of the dose–response curves. […] A heatmap of SI values was constructed by Microsoft Excel 2010.

[3] = test system: human lung adenocarcinoma A549; test: MTT cytotoxicity assay, 48 h; format: cell-based; details: for IC50: Homo sapiens, A549, MTT, 48 h; for Selectivity index: A549: IC50 in hFF3 / IC50 in A549
Protocol: as §1
(§3) Human cervical carcinoma HeLa and KB-3-1 cells, human duodenal carcinoma HuTu-80 cells, and human lung adenocarcinoma A549 cells were obtained from the Russian Culture Collection (Institute of Cytology, RAS, St. Petersburg, Russia). Melanoma B16-F10 (hereafter, melanoma B16) cells were obtained from the Cell Culture Bank of the Blokhin National Medical Oncology Research Center (Moscow, Russia). Nonmalignant fibroblasts hFF3 and RAW264.7 macrophages were kindly provided by Dr. Olga A. Koval (Institute of Chemical Biology and Fundamental Medicine, SB RAS, Novosibirsk, Russia) and Prof. Dmitry Kuprash (Engelhardt Institute of Molecular Biology, RAS, Moscow, Russia), respectively. The cells were cultured in DMEM (Sigma-Aldrich Inc., St. Louis, MO, USA) supplemented with 10% (v/v) heat-inactivated fetal bovine serum (FBS) (BioloT, St. Petersburg, Russia) and antibiotic–antimycotic solution (100 U/mL penicillin, 100 µg/mL streptomycin, 0.25 µg/mL amphotericin). […] The cells were incubated at 37 °C in a humidified 5% CO2-containing air atmosphere (hereafter referred to as standard conditions). GA derivatives were dissolved in DMSO (stock solutions: 10 mM) and stored at −20 °C prior to use.
as §2

[4] = test system: murine melanoma B16; test: MTT cytotoxicity assay, 48 h; format: cell-based; details: for IC50: Mus musculus, MTT, 48 h; for Selectivity index: B16: IC50 in hFF3 / IC50 in B16
Protocol: as §1, §3, §2

[5] = test system: human cervical carcinoma KB-3-1; test: MTT cytotoxicity assay, 48 h; format: cell-based; details: for IC50: Homo sapiens, KB 3-1, MTT, 48 h, read-out: IC50, µM Cervix KB-3-1; for Selectivity index: KB-3-1: IC50 in hFF3 / IC50 in KB-3-1
Protocol: as §1, §3, §2

[6] = test system: human cervical carcinoma HeLa; test: MTT cytotoxicity assay, 48 h; format: cell-based; details: for IC50: Homo sapiens, HeLa, MTT, 48 h, read-out: IC50, µM Cervix HeLa; for Selectivity index: HeLa: IC50 in hFF3 / IC50 in HeLa
Protocol: as §1, §3, §2

[7] = test system: human duodenal carcinoma HuTu-80; test: MTT cytotoxicity assay, 48 h; format: cell-based; details: for IC50: Homo sapiens, HuTu80, MTT, 48 h, read-out: IC50, µM Duodenum HuTu-80; for Selectivity index: HuTu-80: IC50 in hFF3 / IC50 in HuTu-80
Protocol: as §1, §3, §2

[8] = test system: nontransformed human fibroblasts hFF3; test: MTT cytotoxicity assay, 48 h; format: cell-based; details: Homo sapiens, HFF-3, read-out: IC50, µM Fibroblast hFF3
Protocol: as §1, §3, §2

[9] = test system: carrageenan-induced paw edema; test: Carrageenan-induced paw edema; format: in vivo, ICR mice; details: gastric gavage 1 h before carrageenan, 5 h after induction; 3d 50 mg/kg, indomethacin 20 mg/kg
Protocol: To induce paw edema, ICR mice were injected with 1% carrageenan (50 μL) on the plantar side of the right hind paw. […] Mice were sacrificed 5 h after induction of paw edema. The percent of edema weight in carrageenan-injected compound-treated groups in comparison to that in vehicle-treated control group was calculated according to the formula: % Edema=(M1−M2/M2)^compound/∑n(M1−M2/M2)^vehicle×n×100%, where M1 is the weight of the paw with carrageenan-induced edema; M2 is the weight of the intact paws; compound and vehicle correspond to the compound- and vehicle-treated phlogogen-injected mice, respectively; and n is the number of mice in the control group (n = 9). Furthermore, paw material was collected for subsequent histological analysis.
For histological analysis, the specimens of intact and edema paws from each animal were dehydrated in ascending ethanol and xylol and embedded in HistoMix paraffin (BioVitrum, Russia). Paraffin sections (5 μm) were sliced on a Microm HM 355S microtome (Thermo Fisher Scientific, Waltham, MA, USA) and stained with hematoxylin and eosin. Images were obtained using an Axiostar Plus microscope equipped with an Axiocam MRc5 digital camera (Zeiss, Oberkochen, Germany) at ×100 and ×400 magnifications.

[10] = median over all tested cell lines, read-out: median IC50

What does the source list for `C[C@@H]1C[C@H]2[C@@H]3CCC4=CC(=O)C=C[C@]4(C)[C@@]3(F)[C@@H](O)C[C@]2(C)[C@@]1(O)C(=O)CO` [dexamethasone, reference compound]?
distribution of leukocyte subpopulations in peritoneal fluid [1]: did not affect the distribution of the leukocyte subpopulation; decrease of the total leukocyte number in peritoneal exudates ([1]; 3d 50 mg/kg, dexamethasone 1 mg/kg): 1.8 fold

With `CC1(C)C2CC[C@]3(C)C(C(=O)C=C4[C@@H]5C[C@@](C)(c6nc(-c7ccccc7)no6)CC[C@]5(C)CC[C@]43C)[C@@]2(C)CC[C@@H]1O` (stereo partly drawn) [Compound 5e, 30-nor-3β-hydroxy-11-oxo-20-(3′-phenyl-1′,2′,4′-oxadiazol-5′-yl)-18βH-olean-12-en] as the compound, how does the “cytotoxicity in all tested cell lines” value [2] read?
The value was “nontoxic”.

And the melting point?
The melting point was 231.7 to 232.1 °C.

What about the IC50 [3] of the same compound?
The IC50 was > 50 µM.

And the IC50 [4]?
Its IC50 is > 50 µM.

What about the IC50 [5] of the same compound?
Its IC50 is > 50 µM.

And the IC50 [6]?
The IC50 was 20.3 ± 2.2 µM.

And the “Selectivity index: HeLa” value [6]?
The value was > 2.5.

What about the IC50 [7] of the same compound?
The IC50 was > 50 µM.

And the IC50 [8]?
Its IC50 is > 50 µM.

For `CC(=O)O[C@H]1CC[C@@]2(C)C(CC[C@]3(C)C2C(=O)C=C2[C@@H]4C[C@@](C)(c5nc(-c6ccccn6)no5)CC[C@]4(C)CC[C@]23C)C1(C)C` (stereo partly drawn) [Compound 4f, 30-nor-3β-acetoxy-11-oxo-20-(3′-(pyridin-2′′-yl)-1′,2′,4′-oxadiazol-5′-yl)-18βH-olean-12-en], which IC50 [2, 10] is on record?
Its IC50 is 11.5 µM.

What about the melting point of the same compound?
Its melting point is 293.5 to 297.9 °C.

And the IC50 [3]?
The IC50 was 40.3 ± 4.1 µM.

What about the “Selectivity index: A549” value [3] of the same compound?
The value was 0.3.

And the “Selectivity index: B16” value [4]?
Its value is 1.9.

And the IC50 [4]?
Its IC50 is 6 ± 2.3 µM.

What about the IC50 [5] of the same compound?
The IC50 was 10.3 ± 1.2 µM.

And the “Selectivity index: KB-3-1” value [5]?
Its value is 1.1.

What about the IC50 [6] of the same compound?
The IC50 was 17.9 ± 7.7 µM.

And the “Selectivity index: HeLa” value [6]?
Its value is 0.6.

And the IC50 [7]?
Its IC50 is 11.4 ± 1 µM.

What about the “Selectivity index: HuTu-80” value [7] of the same compound?
The value was 1.0.

And the IC50 [8]?
The IC50 was 11.5 ± 1 µM.

What does the source list for `CC(=O)O[C@H]1CC[C@@]2(C)C(CC[C@]3(C)C2C(=O)C=C2[C@@H]4C[C@@](C)(c5nc(-c6cccnc6)no5)CC[C@]4(C)CC[C@]23C)C1(C)C` (stereo partly drawn) [Compound 4g, 30-nor-3β-acetoxy-11-oxo-20-(3′-(pyridin-3′′-yl)-1′,2′,4′-oxadiazol-5′-yl)-18βH-olean-12-en]?
IC50 [2, 10]: 49.9 µM; melting point: 253.2 °C (dec.); IC50 [3]: 49.7 ± 4.5 µM; Selectivity index: A549 [3]: >1.0; IC50 [4]: > 50 µM; IC50 [5]: 9.5 ± 0.5 µM; Selectivity index: KB-3-1 [5]: > 5.3; IC50 [6]: > 50 µM; IC50 [7]: 5.8 ± 0.5 µM; Selectivity index: HuTu-80 [7]: > 8.6; IC50 [8]: > 50 µM

What does the source list for `CC(C)(C)c1noc([C@@]2(C)CC[C@]3(C)CC[C@]4(C)C(=CC(=O)C5[C@@]6(C)CC[C@H](O)C(C)(C)C6CC[C@]54C)[C@@H]3C2)n1` (stereo partly drawn) [Compound 5d, 30-nor-3β-hydroxy-11-oxo-20-(3′-tert-butyl-1′,2′,4′-oxadiazol-5′-yl)-18βH-olean-12-en]?
IC50 [2, 10]: 16.5 µM; melting point: 227.8 °C (dec.); IC50 [3]: 23.5 ± 6.3 µM; Selectivity index: A549 [3]: 0.9; Selectivity index: B16 [4]: 1.9; IC50 [4]: 11.3 ± 1.9 µM; IC50 [5]: 22.3 ± 3.7 µM; Selectivity index: KB-3-1 [5]: 1.0; IC50 [6]: 3.7 ± 0.9 µM; Selectivity index: HeLa [6]: 5.8; IC50 [7]: 8.8 ± 1.1 µM; Selectivity index: HuTu-80 [7]: 2.5; IC50 [8]: 21.6 ± 3.4 µM

For `CC(=O)O[C@H]1CC[C@@]2(C)C(CC[C@]3(C)C2C(=O)C=C2[C@@H]4C[C@@](C)(c5nc(-c6ccncc6)no5)CC[C@]4(C)CC[C@]23C)C1(C)C` (stereo partly drawn) [Compound 4h, 30-nor-3β-acetoxy-11-oxo-20-(3′-(pyridin-4″-yl)-1′,2′,4′-oxadiazol-5′-yl)-18βH-olean-12-en], which “cytotoxicity in all tested cell lines” value [2] is on record?
Its value is “nontoxic”.

And the IC50 ([2]; read-out: IC50 values with respect to all tested cell lines)?
The IC50 was ≥ 50 µM.

And the melting point?
The melting point was 265.3 to 267.3 °C.

And the IC50 [3]?
The IC50 was > 50 µM.

And the IC50 [4]?
The IC50 was > 50 µM.

And the IC50 [5]?
Its IC50 is > 50 µM.

And the IC50 [6]?
Its IC50 is > 50 µM.

And the IC50 [7]?
The IC50 was 49.7 ± 2.4 µM.

What about the “Selectivity index: HuTu-80” value [7] of the same compound?
The value was >1.0.

And the IC50 [8]?
Its IC50 is > 50 µM.

Which “decrease of the weight of edema compared with vehicle-treated mice” value [9] does the source give for `COc1ccc2c(c1)c(CC(=O)O)c(C)n2C(=O)c1ccc(Cl)cc1` [indomethacin, reference compound] here?
Its value is “three-fold”.

Which results are given for `CC(=O)O[C@H]1CC[C@@]2(C)C(CC[C@]3(C)C2C(=O)C=C2[C@@H]4C[C@@](C)(C(=O)O/N=C(\C)N)CC[C@]4(C)CC[C@]23C)C1(C)C` (stereo partly drawn) [Compound 3a]?
IC50 [2, 10]: 2.6 µM; melting point: 112.8 to 117.3 °C; IC50 [3]: 2.6 ± 0.1 µM; Selectivity index: A549 [3]: 0.7; Selectivity index: B16 [4]: 0.3; IC50 [4]: 6.8 ± 0.2 µM; IC50 [5]: 5.9 ± 0.2 µM; Selectivity index: KB-3-1 [5]: 0.3; IC50 [6]: 2.6 ± 0.1 µM; Selectivity index: HeLa [6]: 0.7; IC50 [7]: 2.3 ± 0.1 µM; Selectivity index: HuTu-80 [7]: 0.7; IC50 [8]: 1.7 ± 0.1 µM
